Consider nine compounds from PubChem BioAssay (NCI).

Molecules are shown by their SMILES.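 Cells were grown in 96-well plates and exposed to each compound for 48 hours at five concentrations; endpoints were interpolated linearly between bracketing concentrations, or set to the highest concentration if not reached. TGI marks complete inhibition of growth.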

Among the test systems are CAKI-1 renal; HCT-116 colon; HCT-15 colon; HOP-92 NSCLC; HT29 colon; KM12 colon; LOX IMVI melanoma; M14 melanoma; MALME-3M melanoma; OVCAR-3 ovarian; OVCAR-5 ovarian; OVCAR-8 ovarian; RXF 393 renal; SF-268 CNS; SK-MEL-2 melanoma; OVCAR-4 ovarian; HS 578T breast; MDA-MB-231 breast.
Test in all cases: DTP human tumour cell line panel, 48 h

For `O=C(O)c1ccc(C2COc3ccc(Cl)cc3C2)cc1` (stereo unspecified), the concentration for total growth inhibition (TGI) in the experiment on CAKI-1 renal, in the experiment with HCT-116 colon, with HCT-15 colon, with HOP-92 NSCLC, in the experiment on HT29 colon and with KM12 colon was more than 100 µM throughout. Further, the TGI with LOX IMVI melanoma, with M14 melanoma, in the experiment with MALME-3M melanoma, in the experiment with OVCAR-3 ovarian, in the experiment with OVCAR-5 ovarian and in the experiment with OVCAR-8 ovarian was more than 100 µM throughout. The total growth inhibition concentration (TGI) with RXF 393 renal, in the experiment with SF-268 CNS and in the experiment with SK-MEL-2 melanoma was more than 100 µM throughout.
With `COc1ccc2c(c1)C(=O)C1CC(=O)CCC21` (stereo unspecified), the TGI with CAKI-1 renal, in the experiment with HCT-116 colon, with HCT-15 colon, in the experiment with HOP-92 NSCLC, in the experiment with HT29 colon and in the experiment on KM12 colon was more than 100 µM in each case. Further, the TGI in the experiment with LOX IMVI melanoma, with M14 melanoma, in the experiment with MALME-3M melanoma, with OVCAR-3 ovarian, in the experiment on OVCAR-4 ovarian and with OVCAR-5 ovarian was more than 100 µM throughout. The concentration for total growth inhibition (TGI) in the experiment on OVCAR-8 ovarian, in the experiment with SF-268 CNS and in the experiment on SK-MEL-2 melanoma was more than 100 µM each time.
Turning to `CC(=O)NC(CCCNC(=O)N(CCCl)N=O)C(=O)NCc1ccccc1` (stereo unspecified), the TGI in the experiment with CAKI-1 renal, in the experiment with HCT-116 colon, in the experiment with HCT-15 colon, in the experiment with HOP-92 NSCLC, with HT29 colon and with KM12 colon was more than 100 µM each time. Further, the TGI in the experiment with M14 melanoma, with MALME-3M melanoma, with OVCAR-3 ovarian, in the experiment on OVCAR-4 ovarian, in the experiment on OVCAR-8 ovarian and in the experiment with RXF 393 renal was more than 100 µM in each case. Moreover, the TGI in the experiment on SF-268 CNS and in the experiment with SK-MEL-2 melanoma was more than 100 µM throughout.
`COc1cc(C2SCC(=O)N2c2cccc(Cl)c2)cc(OC)c1OC` (stereo unspecified): the TGI in the experiment on CAKI-1 renal, with HCT-116 colon, with HCT-15 colon, in the experiment with HOP-92 NSCLC, in the experiment on HS 578T breast and in the experiment with HT29 colon was more than 100 µM throughout. Moreover, the TGI in the experiment on KM12 colon, in the experiment on LOX IMVI melanoma, in the experiment with M14 melanoma, with MDA-MB-231 breast, in the experiment on OVCAR-4 ovarian and with OVCAR-5 ovarian was more than 100 µM each time. Moreover, the TGI with OVCAR-8 ovarian, in the experiment on SF-268 CNS and in the experiment on SK-MEL-2 melanoma was more than 100 µM in each case.
`C/C=C1\CN2CCc3c([nH]c4ccccc34)C2CC1C(=O)OC` (stereo unspecified): the TGI with CAKI-1 renal, in the experiment on HCT-116 colon, in the experiment with HCT-15 colon, in the experiment on HOP-92 NSCLC, in the experiment on HT29 colon and in the experiment on KM12 colon was more than 322 µM throughout. Further, the TGI with LOX IMVI melanoma, in the experiment on MALME-3M melanoma, with OVCAR-3 ovarian, with OVCAR-5 ovarian, in the experiment on OVCAR-8 ovarian and in the experiment with RXF 393 renal was more than 322 µM in each case. Further, the TGI with SF-268 CNS and in the experiment on SK-MEL-2 melanoma was more than 322 µM in each case.
`CCCCCCCOc1ccc(/C=C\c2cc[n+](CCCCCCCC[n+]3ccc(/C=C\c4ccc(OCCCCCCC)cc4)cc3)cc2)cc1`: the TGI – broadly, the concentration at which net growth stops – in the experiment on CAKI-1 renal was 63.7 µM; in the experiment on HCT-116 colon, 26.5 µM; in the experiment with HCT-15 colon, 34.1 µM; in the experiment with HOP-92 NSCLC it was more than 100 µM; in the experiment with HT29 colon, 28.7 µM; with KM12 colon it was 28.2 µM. Besides, the TGI with LOX IMVI melanoma was more than 100 µM; in the experiment on M14 melanoma, 34.5 µM; with MALME-3M melanoma, 33.7 µM; with OVCAR-3 ovarian, 33.1 µM; in the experiment on OVCAR-4 ovarian, more than 100 µM; with OVCAR-5 ovarian, 46.5 µM. Further, the total growth inhibition concentration (TGI) in the experiment on OVCAR-8 ovarian was 55.5 µM; in the experiment with RXF 393 renal it was more than 100 µM; with SF-268 CNS, 44.6 µM; in the experiment on SK-MEL-2 melanoma, 74.3 µM.
Turning to `CC(=O)CN(Cc1cc(C)c2c(c1)c1ccccc1n2Cc1ccccc1)S(=O)(=O)c1ccc(C)cc1`, the TGI with CAKI-1 renal, with HCT-116 colon, in the experiment on HOP-92 NSCLC, in the experiment on HT29 colon, in the experiment on KM12 colon and in the experiment on M14 melanoma was more than 100 µM each time. Besides, the TGI with MALME-3M melanoma, in the experiment with OVCAR-3 ovarian, in the experiment with OVCAR-4 ovarian, with OVCAR-8 ovarian, in the experiment on SF-268 CNS and in the experiment on SK-MEL-2 melanoma was more than 100 µM each time.
For `CS(=O)(=O)c1ccc(-c2cc(-c3ccc(S(C)(=O)=O)cc3)[n+](-c3cc(-c4ccc(S(C)(=O)=O)cc4)c([O-])c(-c4ccc(S(C)(=O)=O)cc4)c3)c(-c3ccc(S(C)(=O)=O)cc3)c2)cc1`, the TGI in the experiment with CAKI-1 renal, with HCT-116 colon, in the experiment on HCT-15 colon, in the experiment with HT29 colon, in the experiment on KM12 colon and in the experiment with LOX IMVI melanoma was more than 100 µM throughout. Besides, the TGI in the experiment with M14 melanoma, with MALME-3M melanoma, in the experiment with OVCAR-3 ovarian, with OVCAR-4 ovarian, in the experiment with OVCAR-5 ovarian and with OVCAR-8 ovarian was more than 100 µM each time. Further, the concentration for total growth inhibition (TGI) with RXF 393 renal, with SF-268 CNS and with SK-MEL-2 melanoma was more than 100 µM each time.
As to `CCOC(=O)/C(C=Nc1c(C)n(C)n(-c2ccccc2)c1=O)=C(/C)O`, the total growth inhibition concentration (TGI) in the experiment on CAKI-1 renal, in the experiment with HCT-116 colon, in the experiment with HCT-15 colon, with HOP-92 NSCLC, with KM12 colon and with LOX IMVI melanoma was more than 100 µM in each case. The TGI in the experiment with M14 melanoma, in the experiment with MALME-3M melanoma, in the experiment with MDA-MB-231 breast, in the experiment with OVCAR-3 ovarian, in the experiment with OVCAR-4 ovarian and in the experiment with OVCAR-5 ovarian was more than 100 µM each time. Also, the concentration for total growth inhibition (TGI) in the experiment with OVCAR-8 ovarian, with RXF 393 renal and in the experiment on SK-MEL-2 melanoma was more than 100 µM each time.
